Source: ChEMBL document CHEMBL1201862, “PubChem BioAssay data set” (2004)
Active and inactive are the calls of the source.

Assays:
[1] = target: Peroxisome proliferator-activated receptor gamma/Nuclear receptor coactivator 1 (Homo sapiens, UniProt P37231); test: (§1) TR-FRET dose response biochemical High Throughput Screening assay for agonists of the steroid receptor coactivator 1 (SRC-1) recruitment by the peroxisome proliferator-activated receptor gamma (PPAR gamma): non-selective agonists. [Related pubchem assays (depositor defined):AID1300, AID1808, AID504735, AID631]; type: protein assay
[2] = target: Peroxisome proliferator-activated receptor gamma/Nuclear receptor coactivator 3 (Homo sapiens, UniProt P37231); test: as §1, with “3 (SRC-3)” for “1 (SRC-1)”, “assays: 1301 (Confirmation screen.), 1048 (Primary screen.)]” for “assays (depositor defined):AID1300, AID1808, AID504735, AID631]”; type: functional
[3] = target: Peroxisome proliferator-activated receptor gamma/Nuclear receptor coactivator 2 (Homo sapiens, UniProt P37231); test: TR-FRET dose response biochemical High Throughput Screening assay for agonists of the steroid receptor coactivator 2 (SRC-2) recruitment by the peroxisome proliferator-activated receptor gamma (PPAR gamma): non-selective agonists. [Related pubchem assays: 1297, 1032 ]; type: functional
[4] = target: DNA dC->dU-editing enzyme APOBEC-3A (Homo sapiens, UniProt P31941); test: Dose Response confirmation of small molecule APOBEC3A DNA Deaminase Inhibitors via a fluorescence-based single-stranded DNA deaminase assay. [Related pubchem assays (depositor defined):AID493011, AID493024]; type: functional
[5] = target: DNA dC->dU-editing enzyme APOBEC-3G (Homo sapiens, UniProt Q9HC16); type: functional;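 note: Dose-response counterscreen measuring inhibition of APOBEC3G DNA deaminase activity, run while confirming APOBEC3A inhibitors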
[6] = Luminescence Cell-Based Dose Confirmation HTS to Identify Activators of 5'UTR Stem-Loop Driven Alpha-Synuclein mRNA Translation in H4 Neuroglioblastoma Cells. [Related pubchem assays: 1829 (Project Summary), 1814 (Primary HTS)]; type: functional
[7] = Luminescence Cell-Based Dose Response HTS to Identify Activators of Luciferase Translation or Activity in H4 […] Cells. [Related pubchem assays: 1829 (Project Summary), 1814 (Primary HTS)]; type: functional
H4 = test: Luminescence Cell-Based Dose Response HTS to Identify Activators of 5'UTR Stem-Loop Driven Prion Protein mRNA Translation in H4 Neuroglioblastoma Cells. [Related pubchem assays: 1829 (Project Summary), 1814 (Primary HTS)]; type: functional; conditions: Homo sapiens
[8] = Trypanosoma cruzi growth suppression in host cells – NIH3T3 host cells, beta-gal luminescence, confirmation (AID 2044); type: functional, cell-based;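 note: intracellular parasites grown in NIH/3T3 mouse fibroblasts as host cells; luminescent beta-galactosidase reporter signal from transgenic T. cruzi replicating inside host cells; inhibitors lower the luminescence signal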
[9] = viability of PTEN-deleted HCT116 cells – cell-based, HCT116 PTEN knockout, dose response (AID 1047); type: functional;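 note: HCT116 colon tumor cells with PTEN knocked out; cells exposed to compound for 60 hours before readout; potency for loss of cell viability measured by luminescence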
[10] = NIH3T3 cell viability loss – ATP luminescence, mouse fibroblasts, counter-screen, dose response (AID 2010); type: functional, cell-based;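 note: cells exposed to compound for about 90 hours before reading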
[11] = viability of HCT116 lacking mutant beta-catenin – cell-based, human colon tumor, dose response (AID 1045); type: functional;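 note: HCT116 colon tumor cells with beta catenin knocked out; cells exposed to compound for 60 hours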
[12] = THP-1 cell cytotoxicity, dose response, cytotoxicity control for non-replicating M. tuberculosis project (AID 489025); type: functional
[13] = HepG2 cell cytotoxicity, dose response, cytotoxicity control for non-replicating M. tuberculosis project (AID 489018); type: functional; conditions: Mycobacterium tuberculosis
[14] = Vero E6 cell cytotoxicity, dose response, cytotoxicity control for non-replicating M. tuberculosis project, secondary assay (AID 492998); type: functional, VeroE6; conditions: Vero C1008
cells = type: functional
INS1 = test: INS-1E survival protection against cytokine death – cell-based, luminescence, retest, dose response (AID 449756); type: functional; conditions: Rattus norvegicus;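 note: cell death triggered by IL-1 beta plus TNF-alpha plus IFN-gamma mixture; protective hits raise ATP signal compared with cytokine alone wells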
[15] = reduction of Shn3 3'UTR-driven luciferase in osteoblasts – cell-based, Clone20 osteoblasts, firefly luciferase, cherry-picked, dose response (AID 624132); type: functional;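 note: firefly luciferase luminescence from reporter carrying the Shn3 3'UTR in osteoblasts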
[16] = loss of viability in HepG2 cells – cell-based, CellTiter-Glo, cherry-picked, cytotoxicity control for Shn3 inhibitor project, dose response (AID 624134); type: functional
[17] = non-specific 3'UTR reporter inhibition in Clone20-Shn3RL – cell-based, Renilla luciferase, cherry-picked, counter-screen for Shn3 inhibitor project, dose response (AID 624133); type: functional
Coagulation factor XII = target: T1, Coagulation factor XII (Homo sapiens, UniProt P00748); type: functional;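 note: activated factor XIIa alpha cleaving a fluorogenic AMC peptide substrate; inhibitor potency from loss of enzyme activity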
T1 sequence (P00748 whole entry): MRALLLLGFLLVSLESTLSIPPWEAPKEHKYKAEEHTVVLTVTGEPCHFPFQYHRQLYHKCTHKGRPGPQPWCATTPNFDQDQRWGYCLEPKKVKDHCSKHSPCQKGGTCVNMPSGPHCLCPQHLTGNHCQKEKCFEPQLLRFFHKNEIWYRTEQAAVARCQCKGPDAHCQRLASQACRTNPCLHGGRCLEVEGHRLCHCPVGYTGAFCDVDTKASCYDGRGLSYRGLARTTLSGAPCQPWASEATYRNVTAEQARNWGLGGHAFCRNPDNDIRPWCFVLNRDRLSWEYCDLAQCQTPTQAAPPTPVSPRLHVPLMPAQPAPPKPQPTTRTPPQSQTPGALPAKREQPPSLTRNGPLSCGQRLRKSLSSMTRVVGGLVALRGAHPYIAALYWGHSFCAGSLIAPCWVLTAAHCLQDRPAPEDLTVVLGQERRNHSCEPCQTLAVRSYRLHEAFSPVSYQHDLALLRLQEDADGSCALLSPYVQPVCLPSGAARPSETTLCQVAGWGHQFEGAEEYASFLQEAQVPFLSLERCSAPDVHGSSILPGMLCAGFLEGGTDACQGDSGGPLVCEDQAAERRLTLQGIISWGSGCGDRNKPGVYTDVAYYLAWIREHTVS

[18] = target: Glyceraldehyde-3-phosphate dehydrogenase (Homo sapiens, UniProt P04406)
[19] = target: T2, Alkaline phosphatase, tissue-nonspecific isozyme (Homo sapiens, UniProt P05186); test: potency against alkaline phosphatase TNAP – biochemical, luminescent, dose response, SAR follow-up (AID 1056)
T2 sequence (P05186 whole entry): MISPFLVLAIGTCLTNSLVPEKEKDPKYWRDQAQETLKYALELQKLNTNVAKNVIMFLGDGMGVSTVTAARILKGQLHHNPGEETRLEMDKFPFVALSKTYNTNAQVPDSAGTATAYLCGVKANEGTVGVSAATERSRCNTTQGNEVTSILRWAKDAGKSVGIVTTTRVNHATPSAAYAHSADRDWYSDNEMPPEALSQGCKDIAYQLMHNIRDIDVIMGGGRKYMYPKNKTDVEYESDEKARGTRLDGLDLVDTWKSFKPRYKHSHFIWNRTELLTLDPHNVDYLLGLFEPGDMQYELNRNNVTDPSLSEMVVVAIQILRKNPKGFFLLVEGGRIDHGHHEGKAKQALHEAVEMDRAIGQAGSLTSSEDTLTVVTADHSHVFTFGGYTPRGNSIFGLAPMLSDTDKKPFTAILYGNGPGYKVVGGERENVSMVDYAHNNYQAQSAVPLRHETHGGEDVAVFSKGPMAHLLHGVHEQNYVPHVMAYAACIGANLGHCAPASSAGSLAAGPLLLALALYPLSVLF

[20] = Luminescence Cell-Based Dose Retest to Confirm Inhibitors of Cancer Stem Cells. [Related pubchem assays (depositor defined):AID2717, AID2721]; type: functional; conditions: Homo sapiens
[21] = target: T3, Ubiquitin-conjugating enzyme E2 N (Homo sapiens, UniProt P61088); type: functional;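 note: Dose-response confirmation in a TR-FRET assay detecting UBC13-driven polyubiquitin chain formation, inhibition measured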
T3 sequence (P61088 whole entry): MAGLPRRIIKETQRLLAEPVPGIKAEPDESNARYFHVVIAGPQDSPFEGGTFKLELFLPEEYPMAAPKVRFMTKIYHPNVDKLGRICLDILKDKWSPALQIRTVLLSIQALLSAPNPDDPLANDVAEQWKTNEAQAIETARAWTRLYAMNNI

[22] = target: Eukaryotic translation initiation factor 4E (Mus musculus, UniProt P63073); test: blockers of eIF4G binding by eIF4E – biochemical, TR-FRET, dose response (AID 855); type: functional;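 note: potency for disrupting eIF4E binding to eIF4GI seen as loss of FRET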
Sequence of Eukaryotic translation initiation factor 4E (P63073 whole entry): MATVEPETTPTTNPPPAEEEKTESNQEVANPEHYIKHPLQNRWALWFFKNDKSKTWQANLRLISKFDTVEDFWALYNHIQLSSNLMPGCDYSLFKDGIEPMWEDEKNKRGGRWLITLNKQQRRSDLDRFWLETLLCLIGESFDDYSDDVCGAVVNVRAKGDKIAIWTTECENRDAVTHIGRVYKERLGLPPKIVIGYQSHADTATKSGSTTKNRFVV

Sequence of Glyceraldehyde-3-phosphate dehydrogenase (P04406 whole entry): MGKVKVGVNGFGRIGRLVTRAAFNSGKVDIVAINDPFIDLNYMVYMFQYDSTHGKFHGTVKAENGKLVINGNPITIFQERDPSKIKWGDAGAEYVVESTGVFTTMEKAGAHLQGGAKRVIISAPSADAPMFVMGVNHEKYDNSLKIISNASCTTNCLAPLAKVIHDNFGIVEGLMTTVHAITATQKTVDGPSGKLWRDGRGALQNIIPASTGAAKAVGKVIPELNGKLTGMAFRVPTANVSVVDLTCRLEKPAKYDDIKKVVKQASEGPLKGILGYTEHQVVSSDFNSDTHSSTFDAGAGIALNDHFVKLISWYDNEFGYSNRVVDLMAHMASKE
Sequence of Peroxisome proliferator-activated receptor gamma/Nuclear receptor coactivator 1 (P37231 whole entry): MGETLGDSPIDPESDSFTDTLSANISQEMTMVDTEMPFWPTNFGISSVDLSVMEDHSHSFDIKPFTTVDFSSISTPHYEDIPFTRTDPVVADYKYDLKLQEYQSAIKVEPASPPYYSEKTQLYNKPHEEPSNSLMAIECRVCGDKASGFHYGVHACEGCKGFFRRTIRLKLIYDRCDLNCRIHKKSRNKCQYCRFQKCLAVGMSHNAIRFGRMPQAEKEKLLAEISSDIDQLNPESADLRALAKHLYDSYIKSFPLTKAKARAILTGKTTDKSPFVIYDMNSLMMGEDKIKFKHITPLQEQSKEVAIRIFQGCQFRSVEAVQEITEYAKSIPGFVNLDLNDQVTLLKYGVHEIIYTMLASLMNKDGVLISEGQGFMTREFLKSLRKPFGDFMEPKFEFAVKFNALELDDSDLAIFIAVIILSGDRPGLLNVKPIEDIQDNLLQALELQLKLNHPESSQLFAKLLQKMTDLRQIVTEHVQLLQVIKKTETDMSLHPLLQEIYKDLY
Sequence of Peroxisome proliferator-activated receptor gamma/Nuclear receptor coactivator 1 (Q15788 whole entry, further chain): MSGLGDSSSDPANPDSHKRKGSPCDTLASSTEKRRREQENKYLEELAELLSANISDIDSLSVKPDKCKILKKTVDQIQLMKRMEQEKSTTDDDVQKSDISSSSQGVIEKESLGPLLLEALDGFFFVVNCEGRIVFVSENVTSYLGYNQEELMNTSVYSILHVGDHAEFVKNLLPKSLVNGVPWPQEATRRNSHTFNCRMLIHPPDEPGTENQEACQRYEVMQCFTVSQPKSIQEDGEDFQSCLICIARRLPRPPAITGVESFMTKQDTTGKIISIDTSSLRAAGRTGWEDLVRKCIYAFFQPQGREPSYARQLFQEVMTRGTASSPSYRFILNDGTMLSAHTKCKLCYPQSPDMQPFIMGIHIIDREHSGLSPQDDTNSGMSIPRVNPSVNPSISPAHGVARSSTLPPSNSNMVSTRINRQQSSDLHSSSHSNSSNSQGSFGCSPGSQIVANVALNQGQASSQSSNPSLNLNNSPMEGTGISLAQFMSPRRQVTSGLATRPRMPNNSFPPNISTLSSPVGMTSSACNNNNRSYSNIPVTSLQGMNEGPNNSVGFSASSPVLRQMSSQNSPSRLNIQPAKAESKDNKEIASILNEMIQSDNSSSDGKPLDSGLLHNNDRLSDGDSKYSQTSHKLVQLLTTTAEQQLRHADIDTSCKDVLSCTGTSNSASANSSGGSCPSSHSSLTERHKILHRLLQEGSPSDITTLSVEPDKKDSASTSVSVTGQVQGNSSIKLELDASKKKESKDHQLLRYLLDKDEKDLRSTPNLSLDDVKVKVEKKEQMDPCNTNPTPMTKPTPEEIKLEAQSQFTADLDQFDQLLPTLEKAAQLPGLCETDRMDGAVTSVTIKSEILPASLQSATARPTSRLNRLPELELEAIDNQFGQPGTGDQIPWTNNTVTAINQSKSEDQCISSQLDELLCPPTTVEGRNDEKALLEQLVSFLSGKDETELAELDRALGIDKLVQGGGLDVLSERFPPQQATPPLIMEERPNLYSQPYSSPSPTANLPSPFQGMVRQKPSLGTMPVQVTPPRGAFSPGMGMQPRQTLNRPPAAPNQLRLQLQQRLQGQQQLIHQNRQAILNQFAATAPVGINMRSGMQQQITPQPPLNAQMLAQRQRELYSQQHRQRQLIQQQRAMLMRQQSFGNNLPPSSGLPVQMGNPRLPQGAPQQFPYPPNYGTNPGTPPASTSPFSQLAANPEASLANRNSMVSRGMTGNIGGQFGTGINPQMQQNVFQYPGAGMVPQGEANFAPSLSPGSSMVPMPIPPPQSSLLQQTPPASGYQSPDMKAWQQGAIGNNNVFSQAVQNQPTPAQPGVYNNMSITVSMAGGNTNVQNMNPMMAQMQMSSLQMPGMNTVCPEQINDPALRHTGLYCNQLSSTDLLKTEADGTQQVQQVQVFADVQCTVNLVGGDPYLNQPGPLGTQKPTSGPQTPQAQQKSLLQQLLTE
Sequence of Peroxisome proliferator-activated receptor gamma/Nuclear receptor coactivator 3 (P37231 whole entry): as the sequence (P37231 whole entry) above
Sequence of Peroxisome proliferator-activated receptor gamma/Nuclear receptor coactivator 3 (Q9Y6Q9 whole entry, further chain): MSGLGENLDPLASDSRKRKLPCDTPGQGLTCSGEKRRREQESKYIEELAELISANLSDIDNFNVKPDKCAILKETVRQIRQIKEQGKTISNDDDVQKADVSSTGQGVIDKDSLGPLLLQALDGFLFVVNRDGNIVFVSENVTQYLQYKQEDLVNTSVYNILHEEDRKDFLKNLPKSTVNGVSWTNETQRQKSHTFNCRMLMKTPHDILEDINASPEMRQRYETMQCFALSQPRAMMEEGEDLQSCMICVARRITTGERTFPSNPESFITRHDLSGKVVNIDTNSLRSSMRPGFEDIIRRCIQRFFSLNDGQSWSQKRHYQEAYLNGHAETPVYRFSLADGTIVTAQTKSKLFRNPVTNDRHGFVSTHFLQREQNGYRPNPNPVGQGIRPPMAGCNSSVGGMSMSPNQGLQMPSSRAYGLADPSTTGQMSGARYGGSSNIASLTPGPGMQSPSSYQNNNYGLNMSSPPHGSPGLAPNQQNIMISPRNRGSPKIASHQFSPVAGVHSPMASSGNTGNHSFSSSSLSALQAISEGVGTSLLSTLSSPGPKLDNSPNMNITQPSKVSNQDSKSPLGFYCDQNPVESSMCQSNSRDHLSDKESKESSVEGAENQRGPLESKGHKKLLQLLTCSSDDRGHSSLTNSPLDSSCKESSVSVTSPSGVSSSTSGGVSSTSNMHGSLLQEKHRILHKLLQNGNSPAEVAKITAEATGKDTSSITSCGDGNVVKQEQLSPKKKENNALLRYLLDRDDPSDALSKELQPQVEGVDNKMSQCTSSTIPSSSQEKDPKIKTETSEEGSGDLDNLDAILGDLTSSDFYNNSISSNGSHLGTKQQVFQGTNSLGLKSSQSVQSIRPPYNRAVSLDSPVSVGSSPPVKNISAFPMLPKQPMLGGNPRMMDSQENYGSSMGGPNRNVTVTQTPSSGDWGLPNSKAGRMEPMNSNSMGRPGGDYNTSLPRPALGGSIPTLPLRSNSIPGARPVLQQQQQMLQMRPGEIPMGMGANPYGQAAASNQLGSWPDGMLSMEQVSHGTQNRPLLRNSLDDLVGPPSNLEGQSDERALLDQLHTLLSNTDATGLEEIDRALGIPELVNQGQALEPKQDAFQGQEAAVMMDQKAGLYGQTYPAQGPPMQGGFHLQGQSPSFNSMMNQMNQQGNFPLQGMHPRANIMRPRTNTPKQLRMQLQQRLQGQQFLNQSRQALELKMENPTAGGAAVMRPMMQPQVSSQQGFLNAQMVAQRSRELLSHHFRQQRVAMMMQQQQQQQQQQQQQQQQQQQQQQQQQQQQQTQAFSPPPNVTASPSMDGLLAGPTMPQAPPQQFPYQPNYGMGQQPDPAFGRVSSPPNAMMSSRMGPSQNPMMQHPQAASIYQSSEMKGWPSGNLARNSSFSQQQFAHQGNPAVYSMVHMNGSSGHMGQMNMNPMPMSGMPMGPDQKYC
Sequence of DNA dC->dU-editing enzyme APOBEC-3A (P31941 whole entry): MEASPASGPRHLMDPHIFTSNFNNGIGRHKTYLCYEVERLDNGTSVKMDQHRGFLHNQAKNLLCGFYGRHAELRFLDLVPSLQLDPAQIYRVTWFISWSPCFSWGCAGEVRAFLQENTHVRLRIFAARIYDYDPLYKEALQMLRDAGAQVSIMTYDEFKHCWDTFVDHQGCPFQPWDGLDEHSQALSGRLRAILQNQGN
Sequence of DNA dC->dU-editing enzyme APOBEC-3G (Q9HC16 whole entry): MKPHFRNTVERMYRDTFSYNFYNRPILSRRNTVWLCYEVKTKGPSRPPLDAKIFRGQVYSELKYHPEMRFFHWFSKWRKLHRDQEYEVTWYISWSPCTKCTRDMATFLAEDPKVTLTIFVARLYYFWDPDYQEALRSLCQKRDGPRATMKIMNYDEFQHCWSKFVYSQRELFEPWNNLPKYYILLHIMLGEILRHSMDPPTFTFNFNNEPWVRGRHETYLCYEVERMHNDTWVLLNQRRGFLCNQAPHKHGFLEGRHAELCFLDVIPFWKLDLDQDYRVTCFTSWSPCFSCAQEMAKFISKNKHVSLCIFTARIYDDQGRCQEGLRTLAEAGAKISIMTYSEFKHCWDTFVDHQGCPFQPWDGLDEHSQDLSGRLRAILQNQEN

## COc1cccc(OC)c1C(=O)Nc1nnc(-c2cccs2)s1
[1]
  EC50: 17.7 µM (inactive)
[2]
  EC50: > 79.4 µM (not active)
[3]
  EC50: 22 µM (not active)

## CCN1CCN(S(=O)(=O)c2ccc(Cl)c(C(=O)N(C)C(c3ccccc3)c3ccccc3)c2)CC1
[4]
  IC50: 4.6 µM (active)
[5]
  IC50: 5.67 µM (active)

## CN(C)CC(C(=O)c1ccccc1)c1ccccc1 (stereo not drawn)
[6]
  EC50: > 120 µM (not active)
[7]
  EC50: > 120 µM (not active)
H4
  EC50: > 120 µM (not active)
[8]
  EC50: 3.6 µM (active)
[9]
  EC50: 5.35 µM (active)
[10]
  EC50: > 30 µM (not active)
[11]
  EC50: 2.99 µM (active)
[12]
  CC50: 7.72 µM (active)
[13]
  CC50: 12.9 µM (active)
[14]
  CC50: 10.6 µM (active)
cells
  IC50: 4.64 µM (active)
INS1
  AC50: 7.43 µM (active)
[15]
  AC50: 2.8 µM (active)
[16]
  AC50: 19.2 µM (active)
[17]
  AC50: 8.54 µM (active)

## Cc1cc(NC(=O)CCN2C(=O)/C(=C/c3ccccc3F)SC2=S)no1
Coagulation factor XII
  IC50: > 50 µM (inactive)

## c1cncc(-c2cnc3ccccc3c2)c1
[18]
  IC50: > 100 µM (not active)
[19]
  IC50: > 100 µM (inactive)

## COc1ccc2nc(C)cc(N/N=C/c3ccccc3)c2c1
[12]
  CC50: 10.9 µM (active)
[20]
  AC50: 5.6 µM (active)
[13]
  CC50: 9.19 µM (active)
[21]
  IC50: > 20 µM (inactive)
[14]
  CC50: 6.15 µM (active)
cells
  IC50: 0.52 µM (active)
INS1
  AC50: 2.68 µM (active)

## Cc1ccccc1N=Nc1c(C)[nH]n(-c2ccccc2)c1=O
[22]
  IC50: 50 µM (inactive)

## Cn1cnc(-c2cccnc2)c1
[18]
  IC50: > 100 µM (not active)
[19]
  IC50: > 100 µM (inactive)
